Measured values from ChEMBL document CHEMBL1201862, “PubChem BioAssay data set” (2004).
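48-hour exposure; five concentrations; linearly interpolated endpoints. The concentration for 50% growth inhibition is given as GI50.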 Active and inactive are the calls of the source. Rule as the data show it: active = GI50 up to about 1.1 µM and inactive = higher.

What was measured:
Assay in all cases: NCI anticancer screen, dose series, 48 h
[1] = test system: 786-0
[2] = test system: COLO 205
[3] = test system: EKVX
[4] = test system: HCC 2998
[5] = test system: HCT-116
[6] = test system: Hs-578T
[7] = test system: K562
[8] = test system: KM12
[9] = test system: MCF7
[10] = test system: MOLT-4
[11] = test system: NCI-H23
[12] = test system: SK-MEL-28
[13] = test system: SN12C
[14] = test system: SNB-75
[15] = test system: UACC-257
[16] = test system: UACC-62
[17] = test system: UO-31
[18] = test system: SF-295
[19] = test system: SF-539

In the case of O=C(CC(=O)n1nc(-c2ccccc2)c(/N=N/c2ccc(Cl)cc2)c1-c1ccccc1)Nc1cccc(Cl)c1, the GI50 [1] is reported as 59.6 µM (inactive), the GI50 [2] is reported as > 100 µM (inactive) and the GI50 [3] is reported as 25.3 µM (inactive). The GI50 [4] was > 100 µM (inactive), the GI50 [5] was 61.7 µM (inactive) and the GI50 [6] was > 100 µM (inactive). The GI50 [7] was 46.7 µM (inactive), the GI50 [8] was > 100 µM (inactive) and the GI50 [9] was > 10 µM (inactive). For the same molecule, the GI50 [10] was 35.9 µM (inactive), the GI50 [11] was > 100 µM (inactive) and the GI50 [12] was > 100 µM (inactive). For the same molecule, the GI50 [13] was 60.5 µM (inactive), the GI50 [14] was 43.3 µM (inactive) and the GI50 [15] was > 100 µM (inactive). The GI50 [16] was 73.8 µM (inactive) and the GI50 [17] was 30.5 µM (inactive).

For O=C(O)CCC(=O)c1ccc2c(c1)C(C(=O)O)CC2 (stereo not given), the GI50 [1] was > 100 µM (inactive), the GI50 [2] was > 100 µM (inactive) and the GI50 [3] was > 100 µM (inactive). For the same molecule, the GI50 [4] was > 100 µM (inactive), the GI50 [5] was 0.0935 µM (active) and the GI50 [6] was > 100 µM (inactive). For the same molecule, the GI50 [7] was > 100 µM (inactive), the GI50 [8] was > 100 µM (inactive) and the GI50 [9] was > 100 µM (inactive). For the same molecule, the GI50 [10] was > 100 µM (inactive), the GI50 [11] was > 100 µM (inactive) and the GI50 [18] was > 100 µM (inactive). For the same molecule, the GI50 [19] was > 100 µM (inactive), the GI50 [12] was > 100 µM (inactive) and the GI50 [13] was > 100 µM (inactive). The GI50 [15] was > 100 µM (inactive), the GI50 [16] was > 100 µM (inactive) and the GI50 [17] was > 100 µM (inactive).

In the case of COc1ccc(C2(CC(C)C)CCNC2)cc1OC (stereo not given), the GI50 [1] is reported as > 100 µM (inactive), the GI50 [2] is reported as > 100 µM (inactive) and the GI50 [3] is reported as 86.1 µM (inactive). For the same molecule, the GI50 [4] was 12.9 µM (inactive), the GI50 [5] was > 100 µM (inactive) and the GI50 [6] was > 100 µM (inactive). For the same molecule, the GI50 [7] was > 100 µM (inactive), the GI50 [8] was > 100 µM (inactive) and the GI50 [9] was 84.1 µM (inactive). For the same molecule, the GI50 [11] was 78.2 µM (inactive), the GI50 [18] was > 100 µM (inactive) and the GI50 [12] was > 100 µM (inactive). The GI50 [13] was > 100 µM (inactive), the GI50 [14] was 8.18 µM (inactive) and the GI50 [15] was > 100 µM (inactive). The GI50 [16] was > 100 µM (inactive) and the GI50 [17] was 50.9 µM (inactive).

With Cc1ccccc1N1C(N)=C(C#N)C(C#N)(C#N)C1c1ccccc1 (stereo not given) the GI50 [1] was 17.3 µM (inactive), the GI50 [2] was 17.9 µM (inactive) and the GI50 [3] was 17.9 µM (inactive). For the same molecule, the GI50 [4] was 16.8 µM (inactive), the GI50 [5] was 18 µM (inactive) and the GI50 [6] was 20.1 µM (inactive). The GI50 [8] was 16.8 µM (inactive), the GI50 [9] was 23.6 µM (inactive) and the GI50 [10] was 15.6 µM (inactive). The GI50 [11] was 19.4 µM (inactive), the GI50 [18] was 24.7 µM (inactive) and the GI50 [19] was 21.2 µM (inactive). For the same molecule, the GI50 [12] was 17.6 µM (inactive), the GI50 [13] was 23.3 µM (inactive) and the GI50 [14] was 26 µM (inactive). The GI50 [15] was 17 µM (inactive), the GI50 [16] was 17.9 µM (inactive) and the GI50 [17] was 16.8 µM (inactive).

In the case of COc1ccc(C)c2c1N[C@](C)([C@]1(C)Nc3c(OC)ccc(C)c3C1=O)C2=O, the GI50 [1] is reported as > 100 µM (inactive), the GI50 [2] is reported as > 100 µM (inactive) and the GI50 [3] is reported as > 100 µM (inactive). The GI50 [4] was > 100 µM (inactive), the GI50 [5] was > 100 µM (inactive) and the GI50 [6] was 39.3 µM (inactive). For the same molecule, the GI50 [7] was > 100 µM (inactive), the GI50 [8] was 76.9 µM (inactive) and the GI50 [9] was > 100 µM (inactive). The GI50 [10] was > 100 µM (inactive), the GI50 [11] was > 100 µM (inactive) and the GI50 [18] was 41.4 µM (inactive). For the same molecule, the GI50 [19] was > 100 µM (inactive), the GI50 [12] was > 100 µM (inactive) and the GI50 [13] was > 100 µM (inactive). For the same molecule, the GI50 [15] was > 100 µM (inactive), the GI50 [16] was > 100 µM (inactive) and the GI50 [17] was > 100 µM (inactive).

For O=c1cc2oc3ccc4ccccc4c3cc-2c(=O)[nH]1, the GI50 [1] was 13.8 µM (inactive), the GI50 [2] was 15.3 µM (inactive) and the GI50 [3] was 18 µM (inactive). The GI50 [4] was 16.9 µM (inactive), the GI50 [5] was 17.1 µM (inactive) and the GI50 [6] was 24.4 µM (inactive). For the same molecule, the GI50 [7] was 19.8 µM (inactive), the GI50 [8] was 20 µM (inactive) and the GI50 [9] was 19.1 µM (inactive). The GI50 [10] was 2.25 µM (inactive), the GI50 [11] was 1.42 µM (inactive) and the GI50 [18] was 20.7 µM (inactive). For the same molecule, the GI50 [19] was 9.79 µM (inactive), the GI50 [12] was 17.9 µM (inactive) and the GI50 [15] was 16.4 µM (inactive). For the same molecule, the GI50 [16] was 17.9 µM (inactive) and the GI50 [17] was 11 µM (inactive).
